In brackets after ≈: the same amount, converted by molar mass.
Key:
Assay type in all cases: functional
Staphylococcus aureus [1] = assay: Antibacterial activity against glycopeptide-intermediate Staphylococcus aureus clinical isolate by broth microdilution method
Escherichia coli = assay: Antibacterial activity against Escherichia coli clinical isolate by broth microdilution method
Streptococcus pneumoniae [2] = assay: Bacteriostatic activity against Streptococcus pneumoniae 02J1046 assessed as log reduction in bacterial growth at 1 to 8 times MIC after 24 hrs
Enterococcus faecalis [3] = assay: Antibacterial activity against vancomycin-susceptible Enterococcus faecalis clinical isolate by broth microdilution method
Enterococcus faecalis [4] = assay: Antibacterial activity against […] Enterococcus faecalis ATCC 29212 by broth microdilution method
Morganella morganii = assay: Antibacterial activity against Morganella morganii clinical isolate by broth microdilution method
Enterococcus faecium [5] = assay: Antibacterial activity against linezolid-resistant Enterococcus faecium 03B1074 by broth microdilution method
Enterobacter cloacae = assay: Antibacterial activity against Enterobacter cloacae clinical isolate by broth microdilution method
Staphylococcus aureus [6] = assay: Antibacterial activity against […] Staphylococcus aureus ATCC 29213 by broth microdilution method
Staphylococcus aureus [7] = assay: Antibacterial activity against methicillin-resistant Staphylococcus aureus clinical isolate by broth microdilution method
Shigella sp. = assay: Antibacterial activity against Shigella sp. by broth microdilution method
Salmonella sp. = assay: Antibacterial activity against Salmonella sp. by broth microdilution method
Staphylococcus aureus [8] = assay: Antibacterial activity against methicillin-resistant Staphylococcus aureus 01A1095 by broth microdilution method
Enterococcus faecium [9] = assay: Antibacterial activity against linezolid-resistant Enterococcus faecium 03B1077 by broth microdilution method
Staphylococcus aureus [10] = assay: Antibacterial activity against linezolid-resistant Staphylococcus aureus 01A1221 by broth microdilution method
Citrobacter koseri = assay: Antibacterial activity against Citrobacter diversus clinical isolate by broth microdilution method
Listeria monocytogenes = assay: Antibacterial activity against Listeria monocytogenes clinical isolate by broth microdilution method
Legionella pneumophila = assay: Antibacterial activity against Legionella pneumophila clinical isolate by broth microdilution method
Enterococcus faecium [11] = assay: Antibacterial activity against vancomycin-resistant Enterococcus faecium clinical isolate by broth microdilution method
Enterococcus faecium [12] = assay: Bacteriostatic activity against vancomycin resistant Enterococcus faecium 03B1022 assessed as log reduction in bacterial growth at 1 to 8 times MIC after 24 hrs
Pseudomonas aeruginosa = assay: Antibacterial activity against Pseudomonas aeruginosa clinical isolate by broth microdilution method
Enterococcus faecium [13] = assay: Antibacterial activity against linezolid-resistant Enterococcus faecium 03B1076 by broth microdilution method
Klebsiella oxytoca = assay: Antibacterial activity against Klebsiella oxytoca clinical isolate by broth microdilution method
Providencia rettgeri = assay: Antibacterial activity against Providencia rettgeri clinical isolate by broth microdilution method
Serratia marcescens = assay: Antibacterial activity against Serratia marcescens clinical isolate by broth microdilution method
Enterococcus faecium [14] = assay: Antibacterial activity against linezolid-resistant Enterococcus faecium 03B1075 by broth microdilution method
Corynebacterium sp. = assay: Antibacterial activity against Corynebacterium sp. by broth microdilution method
Acinetobacter sp. = assay: Antibacterial activity against Acinetobacter sp. by broth microdilution method
Haemophilus influenzae = assay: Antibacterial activity against Haemophilus influenzae clinical isolate by broth microdilution method
Streptococcus pneumoniae [15] = assay: Antibacterial activity against penicillin-nonsusceptible Streptococcus pneumoniae clinical isolate by broth microdilution method
Streptococcus pyogenes [16] = assay: Antibacterial activity against Streptococcus pyogenes clinical isolate by broth microdilution method
Streptococcus pneumoniae [17] = assay: Antibacterial activity against penicillin-susceptible Streptococcus pneumoniae clinical isolate by broth microdilution method
Moraxella catarrhalis = assay: Antibacterial activity against Moraxella catarrhalis clinical isolate by broth microdilution method
Citrobacter freundii = assay: Antibacterial activity against Citrobacter freundii clinical isolate by broth microdilution method
Staphylococcus = assay: Antibacterial activity against coagulase-negative Staphylococcus clinical isolate by broth microdilution method
Enterococcus faecalis [18] = assay: Antibacterial activity against vancomycin-resistant Enterococcus faecalis clinical isolate by broth microdilution method
Klebsiella pneumoniae [19] = assay: Antibacterial activity against Klebsiella pneumoniae clinical isolate by broth microdilution method
Staphylococcus aureus [20] = assay: Antibacterial activity against linezolid-resistant Staphylococcus aureus 01A1220 by broth microdilution method
[21] = tested on: Staphylococcus epidermidis; assay: Antibacterial activity against methicillin-susceptible Staphylococcus epidermidis clinical isolate by broth microdilution method
Enterococcus faecium [22] = assay: Antibacterial activity against vancomycin-susceptible Enterococcus faecium clinical isolate by broth microdilution method
Streptococcus pyogenes [23] = assay: Antibacterial activity against Streptococcus pyogenes 02C0203 by broth microdilution method
Proteus vulgaris = assay: Antibacterial activity against Proteus vulgaris clinical isolate by broth microdilution method
Klebsiella pneumoniae [24] = assay: Antibacterial activity against extended-spectrum beta-lactamase producing Klebsiella pneumoniae clinical isolate by broth microdilution method
Enterococcus faecium [25] = assay: Antibacterial activity against vancomycin-resistant Enterococcus faecium 03B1022 by broth microdilution method
Burkholderia cepacia = assay: Antibacterial activity against Burkholderia cepacia clinical isolate by broth microdilution method
Streptococcus pyogenes [26] = assay: Bacteriostatic activity against Streptococcus pyogenes 02C0203 assessed as log reduction in bacterial growth at 1 to 8 times MIC after 24 hrs
Neisseria sp. = assay: Antibacterial activity against Neisseria sp. by broth microdilution method
Enterococcus faecalis [27] = assay: Antibacterial activity against linezolid-resistant Enterococcus faecalis 03A1128 by broth microdilution method
Enterococcus faecium [28] = assay: Antibacterial activity against linezolid-resistant Enterococcus faecium 03B1073 by broth microdilution method
Klebsiella aerogenes = assay: Antibacterial activity against Enterobacter aerogenes clinical isolate by broth microdilution method
Staphylococcus aureus [29] = assay: Bacteriostatic activity against methicillin-resistant Staphylococcus aureus 01A1095 assessed as log reduction in bacterial growth at 1 to 8 times MIC after 24 hrs
Proteus mirabilis = assay: Antibacterial activity against Proteus mirabilis clinical isolate by broth microdilution method
Streptococcus pneumoniae [30] = assay: Antibacterial activity against Streptococcus pneumoniae 02J1046 by broth microdilution method
[31] = tested on: Stenotrophomonas maltophilia; assay: Antibacterial activity against Stenotrophomonas maltophilia clinical isolate by broth microdilution method
Staphylococcus aureus [32] = assay: Antibacterial activity against methicillin-susceptible Staphylococcus aureus clinical isolate by broth microdilution method
Enterococcus faecium [33] = assay: Antibacterial activity against linezolid-resistant Enterococcus faecium 03B1078 by broth microdilution method

C/C(=C\c1cc(F)c(OC[C@H](F)C2CC2)cc1F)C(=O)N[C@@H]1[C@H](O)[C@@H](O)[C@H]2OCO[C@H]2[C@@H]1O was tested, and the MIC (Staphylococcus aureus [1]) was 0.125 µg/mL (≈ 0.264 µM), the MIC50 (Escherichia coli) was > 64 µg/mL and the MIC90 (Escherichia coli) was > 64 µg/mL. The FC (Streptococcus pneumoniae [2]) was 1.5, the MIC50 (Enterococcus faecalis [3]) was 1 µg/mL (≈ 2.11 µM) and the MIC90 (Enterococcus faecalis [3]) was 2 µg/mL (≈ 4.22 µM). For the same molecule, the MIC (Enterococcus faecalis [4]) was 1 µg/mL (≈ 2.11 µM), the MIC50 (Morganella morganii) was > 64 µg/mL and the MIC90 (Morganella morganii) was > 64 µg/mL. The MIC (Enterococcus faecium [5]) was 4 µg/mL (≈ 8.45 µM), the MIC50 (Enterobacter cloacae) was > 64 µg/mL and the MIC90 (Enterobacter cloacae) was > 64 µg/mL. For the same molecule, the MIC (Staphylococcus aureus [6]) was 1 µg/mL (≈ 2.11 µM), the MIC50 (Staphylococcus aureus [7]) was 0.5 µg/mL (≈ 1.06 µM) and the MIC90 (Staphylococcus aureus [7]) was 0.5 µg/mL (≈ 1.06 µM). The MIC50 (Shigella sp.) was > 64 µg/mL, the MIC90 (Shigella sp.) was > 64 µg/mL and the MIC50 (Salmonella sp.) was > 64 µg/mL. The MIC90 (Salmonella sp.) was > 64 µg/mL, the MIC (Staphylococcus aureus [8]) was 1 µg/mL (≈ 2.11 µM) and the MIC (Enterococcus faecium [9]) was 2 µg/mL (≈ 4.22 µM). For the same molecule, the MIC (Staphylococcus aureus [10]) was 16 µg/mL (≈ 33.8 µM), the MIC50 (Citrobacter koseri) was > 64 µg/mL and the MIC90 (Citrobacter koseri) was > 64 µg/mL. It also gave an MIC (Listeria monocytogenes) of 4 µg/mL (≈ 8.45 µM), an MIC50 (Listeria monocytogenes) of 4 µg/mL (≈ 8.45 µM) and an MIC90 (Listeria monocytogenes) of 8 µg/mL (≈ 16.9 µM). It also gave an MIC50 (Legionella pneumophila) of 1 µg/mL (≈ 2.11 µM), an MIC90 (Legionella pneumophila) of 2 µg/mL (≈ 4.22 µM) and an MIC50 (Enterococcus faecium [11]) of 1 µg/mL (≈ 2.11 µM). The MIC90 (Enterococcus faecium [11]) was 2 µg/mL (≈ 4.22 µM), the FC (Enterococcus faecium [12]) was 1.5 and the MIC50 (Pseudomonas aeruginosa) was > 64 µg/mL. The MIC90 (Pseudomonas aeruginosa) was > 64 µg/mL, the MIC (Enterococcus faecium [13]) was 8 µg/mL (≈ 16.9 µM) and the MIC50 (Klebsiella oxytoca) was > 64 µg/mL. For the same molecule, the MIC90 (Klebsiella oxytoca) was > 64 µg/mL, the MIC50 (Providencia rettgeri) was > 64 µg/mL and the MIC90 (Providencia rettgeri) was > 64 µg/mL. The MIC50 (Serratia marcescens) was > 64 µg/mL, the MIC90 (Serratia marcescens) was > 64 µg/mL and the MIC (Enterococcus faecium [14]) was 4 µg/mL (≈ 8.45 µM). For the same molecule, the MIC50 (Corynebacterium sp.) was 1 µg/mL (≈ 2.11 µM), the MIC90 (Corynebacterium sp.) was 1 µg/mL (≈ 2.11 µM) and the MIC50 (Acinetobacter sp.) was > 64 µg/mL. The MIC90 (Acinetobacter sp.) was > 64 µg/mL, the MIC50 (Haemophilus influenzae) was 4 µg/mL (≈ 8.45 µM) and the MIC90 (Haemophilus influenzae) was 8 µg/mL (≈ 16.9 µM). It also gave an MIC50 (Streptococcus pneumoniae [15]) of 0.25 µg/mL (≈ 0.528 µM), an MIC90 (Streptococcus pneumoniae [15]) of 0.5 µg/mL (≈ 1.06 µM) and an MIC (Streptococcus pyogenes [16]) of 0.5 µg/mL (≈ 1.06 µM). For the same molecule, the MIC50 (Streptococcus pyogenes [16]) was 0.5 µg/mL (≈ 1.06 µM), the MIC90 (Streptococcus pyogenes [16]) was 1 µg/mL (≈ 2.11 µM) and the MIC50 (Streptococcus pneumoniae [17]) was 0.25 µg/mL (≈ 0.528 µM). For the same molecule, the MIC90 (Streptococcus pneumoniae [17]) was 0.5 µg/mL (≈ 1.06 µM), the MIC50 (Moraxella catarrhalis) was 2 µg/mL (≈ 4.22 µM) and the MIC90 (Moraxella catarrhalis) was 4 µg/mL (≈ 8.45 µM). For the same molecule, the MIC50 (Citrobacter freundii) was > 64 µg/mL, the MIC90 (Citrobacter freundii) was > 64 µg/mL and the MIC50 (Staphylococcus) was 1 µg/mL (≈ 2.11 µM). For the same molecule, the MIC90 (Staphylococcus) was 2 µg/mL (≈ 4.22 µM), the MIC50 (Enterococcus faecalis [18]) was 1 µg/mL (≈ 2.11 µM) and the MIC90 (Enterococcus faecalis [18]) was 2 µg/mL (≈ 4.22 µM). The MIC50 (Klebsiella pneumoniae [19]) was > 64 µg/mL, the MIC90 (Klebsiella pneumoniae [19]) was > 64 µg/mL and the MIC (Staphylococcus aureus [20]) was 16 µg/mL (≈ 33.8 µM). For the same molecule, the MIC50 [21] was 0.12 µg/mL (≈ 0.253 µM), the MIC90 [21] was 0.25 µg/mL (≈ 0.528 µM) and the MIC50 (Enterococcus faecium [22]) was 1 µg/mL (≈ 2.11 µM). For the same molecule, the MIC90 (Enterococcus faecium [22]) was 2 µg/mL (≈ 4.22 µM), the MIC (Streptococcus pyogenes [23]) was 0.25 µg/mL (≈ 0.528 µM) and the MIC50 (Proteus vulgaris) was > 64 µg/mL. The MIC90 (Proteus vulgaris) was > 64 µg/mL, the MIC50 (Klebsiella pneumoniae [24]) was > 64 µg/mL and the MIC90 (Klebsiella pneumoniae [24]) was > 64 µg/mL. The MIC (Enterococcus faecium [25]) was 1 µg/mL (≈ 2.11 µM), the MIC50 (Burkholderia cepacia) was > 64 µg/mL and the MIC90 (Burkholderia cepacia) was > 64 µg/mL. It also gave an FC (Streptococcus pyogenes [26]) of 1.5, an MIC50 (Neisseria sp.) of 4 µg/mL (≈ 8.45 µM) and an MIC90 (Neisseria sp.) of 8 µg/mL (≈ 16.9 µM). The MIC (Enterococcus faecalis [27]) was 16 µg/mL (≈ 33.8 µM), the MIC (Enterococcus faecium [28]) was 1 µg/mL (≈ 2.11 µM) and the MIC50 (Klebsiella aerogenes) was > 64 µg/mL. The MIC90 (Klebsiella aerogenes) was > 64 µg/mL, the FC (Staphylococcus aureus [29]) was 1.5 and the MIC50 (Proteus mirabilis) was > 64 µg/mL. For the same molecule, the MIC90 (Proteus mirabilis) was > 64 µg/mL, the MIC (Streptococcus pneumoniae [30]) was 0.125 µg/mL (≈ 0.264 µM) and the MIC50 [31] was > 64 µg/mL. For the same molecule, the MIC90 [31] was > 64 µg/mL, the MIC50 (Staphylococcus aureus [32]) was 0.5 µg/mL (≈ 1.06 µM) and the MIC90 (Staphylococcus aureus [32]) was 1 µg/mL (≈ 2.11 µM). The MIC (Enterococcus faecium [33]) was 4 µg/mL (≈ 8.45 µM).

From ChEMBL document CHEMBL1255373, “In vitro antibacterial activity of CE-156811, a novel analog derived from hygromycin A” (2008)
